Earlier results on one molecule are cited in patent US12357627B2, “Pharmaceutical compositions of cabozantinib” (AZURITY PHARMACEUTICALS, INC., priority 2021, dated 2025).

Converted amounts (≈) assume the structure as drawn. Where two headings read alike, the source gives them in different places.

A word on the solubility: it is how much of the substance goes into solution per volume.

The conditions of data set [1]: mass balance study.
The conditions of data set [2]: high-fat meal relative to fasted conditions, healthy subjects, single oral dose.

On to `COc1cc2nccc(Oc3ccc(NC(=O)C4(C(=O)Nc5ccc(F)cc5)CC4)cc3)c2cc1OC` [Cabozantinib], for which, in data set [1], the “administered cabozantinib renally excreted” value was “at least 27%”. Moreover, the “increase of AUC” value in data set [2] is 57%. Moreover, the “increase of Cmax” value in data set [2] is given as 41%. For the same molecule, the solubility entry is “practically insoluble” (at pH>4), 110 µg/mL (≈ 219 µM) (in 0.01N HCl) and “practically insoluble” (in water).
